# Laboratory results taken from patent publication US3984413A, “Phenoxyalkanecarboxylic acid esters of hydroxyalkyltheophyllines and method for their manufacture” (L. Merckle KG, priority 1973, dated 1976).
# Read-outs that look alike come from different tables or passages of the source.
# Columns and labels:
# [1] = action on peripheral circulation in narcotized dogs; format: in vivo, dog
# Description: According to Examples 2, 3 and 4, the peripheral circulation is increased some 20-30% of its initial level by the test substances according to those examples.
# [2] = acute toxicity (LD50) in mice, oral; conditions: in vivo, mouse
# Description: (§1) The acute toxicity of the preparations according to the invention was tested on CFJ strain mice and Sprague-Dawley rats.
# (§2) The test substances according to Examples 2,5,6,8 and 10 were administered orally as a 5% suspension in methylcellulose by means of a probang, while the test material according to Example 4, was administered in a 8% gelatin suspension. The test materials for Examples 1 and 3 were administered orally by probang in an aqueous kaolin paste to rats (5 female and 5 male rats weighing 140 to 185 grams each).
# (§3) The period of observation was 7 days.
# [3] = action on blood pressure in narcotized dogs; conditions: into the duodenum, doses up to 200 mg/kg
# [4] = over-all tolerance and clinical pattern during the rat lipid trial; format: in vivo, rat (male SPF Wistar)
# Description: (§4) The antilipemic and anticholesterolemic action of the compounds according to the invention and of Clofibrat as a standard of comparison was tested on each of 10 male SPF Wistar strain rats of body weights from 80 to 90 g. For test purposes the animals were kept individually apart with restricted feed but water as desired. The animals of control group I were given 10 g basal diet daily, those of control group II, the test groups as well as the Clofibrat comparison group received in addition to the basal diet a fatty composition consisting of 40 g/kg butter with 5 g/kg cholesterol. The test substances conforming to the examples, and also the Clofibrat, were suspended in a 0.2% methylcellulose solution and administered by probang. The final cholesterol value and the value of the nonvolatile triglycerides was determined after 14 days treatment. The analyses were performed in the blood serum by means of an SMA 12/60 auto-analyzer.
# There were no deaths. […] No difference could be determined in hearing tests.
# [5] = antilipemic and anticholesterolemic action in rats on fatty diet, 14 days; format: in vivo, rat (male SPF Wistar); conditions: for Drop (nonvolatile triglycerides) / Final value cholesterol / Final value nonvolatile triglycerides / Drop (cholesterol): 14 days; for Final value cholesterol / Final value nonvolatile triglycerides: blood serum; for reduction of the triglycerides compared with Clofibrat: in a substantially lower dosage than Clofibrat
# Description: as §4
# [6] = mouse; comparison, literature data; 10080 min; cited from earlier work
# [7] = cited from earlier work
# [8] = acute toxicity (LD50) in rats, oral; conditions: rat, in vivo
# Description: as §1, §2, §3
# [9] = oral, 5% suspension in methylcellulose, 7 days, according to Litchfield and Wilcoxon
# [10] = versus control groups and Clofibrat comparison group
SMILES,"increase of peripheral circulation, of its initial level [1]","LD50 at 168 h [2, 9] [mg/kg]",systolic and diastolic blood pressure [3],Drop (nonvolatile triglycerides) ([5]; 100 mg/kg) [%],Final value cholesterol ([5]; 100 mg/kg) [mg %],Final value nonvolatile triglycerides ([5]; 100 mg/kg),other results
"Cn1c(=O)c2c(ncn2CC(O)COC(=O)COc2ccc(Cl)cc2)n(C)c1=O (stereo not shown) [Example 2, 1-(7-theophyllinyl)-2-hydroxy-3-propyl (p-chlorophenoxyacetate)]",20-30%,2150,did not acutely affect the systolic and diastolic blood pressure to any substantial degree,45.9,130.3,73.4,"over-all tolerance [4, 10]: no differences in the over-all tolerance; reduction of the triglycerides compared with Clofibrat [5]: more than twice as large a reduction of the triglycerides"
CC(Oc1ccc(Cl)cc1)C(=O)OCCn1cnc2c1c(=O)n(C)c(=O)n2C (stereo not shown) [Example 6],–,1540,–,–,–,–,–
"Cn1c(=O)c2c(ncn2CCOC(=O)C(Oc2ccc(Cl)cc2)Oc2ccc(Cl)cc2)n(C)c1=O [Example 4, 1-(7-theophyllinyl)-2-ethyl bis-(p-chlorophenoxy) acetate]",20-30%,–,did not acutely affect the systolic and diastolic blood pressure to any substantial degree,–,111.0,179.7,LD50 at 168 h ([2]; po): 1910 mg/kg; weight increase ([4]; 100 mg/kg dosage): reduced increase in weight; Final value cholesterol ([5]; 35 mg/kg): 132.3 mg %; Final value nonvolatile triglycerides ([5]; 35 mg/kg): 148.3; Drop (cholesterol) ([5]; 100 mg/kg): 9.8%
Cn1c(=O)c2c(ncn2CCOC(=O)COc2ccc(Cl)cc2)n(C)c1=O [Example 5],–,1510,–,–,–,–,–
"CCOC(=O)C(C)(C)Oc1ccc(Cl)cc1 [Clofibrat, ethyl 2-(p-chlorophenoxy) isobutyrate, reference compound]",–,–,–,–,–,–,"LD50 [6]: 1150 mg/kg; Drop (nonvolatile triglycerides) ([5]; 250 mg/kg): 20.6%; Final value cholesterol ([5]; 250 mg/kg): 133.3 mg %; Final value nonvolatile triglycerides ([5]; 250 mg/kg): 107.7; lowering of cholesterol ([5]; fatty diet rats, in these experimental trials): absolutely inactive; effect on cholesterol value ([7]; fatty diet rat test, Berger et al. 1969): does not lower but even raises the cholesterol value; lowering of cholesterol ([7]; reported in the literature): frequently been reported in the literature"
"Cn1c(=O)c2c(ncn2CC(COC(=O)COc2ccc(Cl)cc2)OC(=O)COc2ccc(Cl)cc2)n(C)c1=O (stereo not shown) [Example 3, 1-(7-theophyllinyl)-2,3-propylidenedi(p-chlorophenoxy acetate)]",20-30%,–,did not acutely affect the systolic and diastolic blood pressure to any substantial degree,44.2,122.0,75.7,"LD50 at 168 h ([8]; po): > 4000 mg/kg; over-all tolerance [4, 10]: no differences in the over-all tolerance; reduction of the triglycerides compared with Clofibrat [5]: more than twice as large a reduction of the triglycerides"
"Cn1c(=O)c2c(ncn2CCOC(=O)C(C)(C)Oc2ccc(Cl)cc2)n(C)c1=O [Example 1, 1-(7-theophyllinyl)-2-ethyl [2-(p-chlorophenoxy)-isobutyrate]]",up to 10%,–,–,17.3,95.2,112.2,"peripheral circulation activity (in words) [1]: only slight activity; LD50 at 168 h ([8]; oral by probang, aqueous kaolin paste, 7 days observation): > 4000 mg/kg; over-all tolerance ([4]; rat, in vivo): no differences in the over-all tolerance; Drop (cholesterol) ([5]; 100 mg/kg): 22.7%; lowering of increased cholesterol values (in words) ([5]; in comparison to Clofibrat): with greater significance lower the increased cholesterol values; reduction of the triglycerides (in words) ([5]; rat, in vivo): comparatively good reduction of the triglycerides"
Cn1c(=O)c2c(ncn2CCOC(=O)COc2ccc(F)cc2)n(C)c1=O [Example 10],–,1680,–,–,–,–,–
CC(Oc1cccc(C(F)(F)F)c1)C(=O)OCCn1cnc2c1c(=O)n(C)c(=O)n2C (stereo not shown) [Example 8],–,2140,–,–,–,–,–
